In one data set the test system is A549. Kind of data set: Cytotoxicity against human A549 cells after 72 hrs by WST1 assay. The format is functional, cell-based. As to conditions: A549, 72 h.
In a further data set the test system is NCI-H460. Kind of data set: Cytotoxicity against human H460 cells after 72 hrs by WST1 assay. The class given is functional, cell-based. The conditions noted are these: NCI-H460, 72 h. A general note: Tetrazolium dyes change colour on reduction, which living cells bring about.
For data set [1], the system named is MCF7. The experiment in a line: Cytotoxicity against human MCF7 cells after 72 hrs by WST1 assay. The class given is functional, cell-based. The conditions noted are these: MCF7, 72 h.
Another data set has as its system MDA-MB-231. The experiment in a line: Cytotoxicity against human MDA-MB-231 cells after 72 hrs by WST1 assay. The format is functional, cell-based. As to conditions: MDA-MB-231, 72 h.
A further data set relates to OVCAR-3. The experiment in a line: Cytotoxicity against human OVCAR3 cells after 72 hrs by WST1 assay. The format is functional, cell-based. As to conditions: OVCAR-3, 72 h.
A further data set deals with PC-3. Kind of data set: Cytotoxicity against human PC3 cells after 72 hrs by WST1 assay. The conditions noted are these: PC-3, 72 h. The format is functional, cell-based.
In data set [2] the test system is MCF7. The experiment in a line: Cell cycle arrest in human MCF7 cells assessed as accumulation at G1 phase at 3 uM after 24 hrs by flow cytometry relative to control. The class given is functional. On the technique in general: A flow cytometer gives signals particle by particle.
The test system of data set [3] is MCF7. Kind of data set: Cell cycle arrest in human MCF7 cells assessed as accumulation at S phase at 3 uM after 24 hrs by flow cytometry relative to control. The format is functional.
Data set [4] relates to MCF7. Kind of data set: Cell cycle arrest in human MCF7 cells assessed as accumulation at G2/M phase at 3 uM after 24 hrs by flow cytometry relative to control. The class given is functional.
For data set [5], the system named is Mus musculus. Kind of data set: Toxicity in SCID mouse at up to 500 mg/kg administered twice week for 7 weeks. The format is organism-based. Also on record: dose 500 mg/kg. As to conditions: in vivo, 1176 h.
The subject of data set [6] is Mus musculus. The experiment in a line: Toxicity in SCID mouse assessed as histopathological examination of kidney at up to 500 mg/kg administered twice week for 7 weeks. The format is organism-based. Also on record: dose 500 mg/kg. As to conditions: in vivo, 1176 h.
The test system of data set [7] is Mus musculus. Kind of data set: Toxicity in SCID mouse assessed as histopathological examination of spleen at up to 500 mg/kg administered twice week for 7 weeks. The format is organism-based. The arrangement: dose 500 mg/kg. As to conditions: in vivo, 1176 h.
The subject of data set [8] is Mus musculus. Kind of data set: Toxicity in SCID mouse assessed as histopathological examination of liver at up to 500 mg/kg administered twice week for 7 weeks. The class given is organism-based. The arrangement: dose 500 mg/kg. As to conditions: in vivo, 1176 h.
Data set [9] has as its system Mus musculus. The experiment in a line: Toxicity in SCID mouse assessed as histopathological examination of cerebellum-brain at up to 500 mg/kg administered twice week for 7 weeks. The class given is organism-based. Also on record: dose 500 mg/kg. As to conditions: in vivo, 1176 h.
Data set [10] relates to Mus musculus. The experiment in a line: Toxicity in SCID mouse assessed as blood analysis at up to 500 mg/kg administered twice week for 7 weeks. The class given is organism-based. The arrangement: dose 500 mg/kg. As to conditions: in vivo, 1176 h.

Consider `COc1ccc(Cn2cnc3c4nc(=O)n(Cc5ccc(F)cc5)c-4ncnc32)cc1`, for which the IC50 – broadly, the concentration that inhibits the measured activity by half – with A549 was 1.6 µM; with NCI-H460, 1.5 µM; with MCF7 [1], 4 µM; with MDA-MB-231, 2.5 µM; in the data set on OVCAR-3, 9 µM; in the data set on PC-3, 2.1 µM.

For `COc1ccc(Cn2cnc3c4nc(=O)n(Cc5ccccc5)c-4ncnc32)cc1`, the IC50 in the data set with A549 turned out to be 1.7 µM; in the data set with NCI-H460, 1.8 µM; in the data set on MCF7 [1], 7 µM; in the data set on MDA-MB-231, 2.3 µM; with OVCAR-3, 5 µM; with PC-3, 4.05 µM.

Consider `COc1ccc(Cn2c3ncnc4c(ncn4Cc4ccc(OC)cc4)c-3nc2=O)cc1`, for which the half-inhibitory concentration (IC50) in the data set on A549 amounted to 2.5 µM; with NCI-H460 it was 2.8 µM; in the data set with MCF7 [1], 7.5 µM; in the data set on MDA-MB-231, 4.01 µM; in the data set on OVCAR-3, 14.5 µM; in the data set on PC-3, 4.8 µM. Further, the Activity in the data set with MCF7 [2] is 79.15%; in the data set on MCF7 [3] it was 5.87%; in the data set on MCF7 [4] it was 14.5%; in the data set on Mus musculus [5], “Non-toxic”; in the data set with Mus musculus [6], “Non-toxic”; with Mus musculus [7] it was “Non-toxic”. Also, the Activity result in the data set with Mus musculus [8], in the data set on Mus musculus [9] and with Mus musculus [10] was “Non-toxic” each time.

As for `COc1ccc(Cn2c3nc(-c4ccc([N+](=O)[O-])cc4)nc4c(ncn4Cc4ccc(OC)cc4)c-3nc2=O)cc1`, the IC50 came out at 2.7 µM in the data set with A549; 2.5 µM with NCI-H460; 5.7 µM in the data set on MCF7 [1]; 3.3 µM in the data set with MDA-MB-231; 5.2 µM with OVCAR-3; 4.3 µM in the data set on PC-3.

In the case of `COc1ccc(Cn2cnc3c4nc(=O)n(Cc5cccc(OC)c5)c-4ncnc32)cc1`, the IC50 with A549 turned out to be 1.5 µM; with NCI-H460, 1.6 µM; with MCF7 [1], 6 µM; in the data set with MDA-MB-231, 2.6 µM; in the data set with OVCAR-3, 5.1 µM; with PC-3 it was 2.5 µM.

For the origin of these results see ChEMBL document CHEMBL1671849, “Novel, Broad Spectrum Anti-Cancer Agents Containing the Tricyclic 5:7:5-Fused Diimidazodiazepine Ring System” (ACS Med Chem Lett, 2011).
